These results are taken from patent publication US9849104B2 (Gemphire Therapuetics Inc., priority 2015, dated 2017).

The target in one series is T1, CYP2D6 (Homo sapiens, UniProt P10635).
T1 construct: Human livers, HLM141, HLM143, and HLM144 were selected from the University of Washington Human Liver Bank for this study; Microsomes were prepared; tissue University of Washington Human Liver Bank HLM141, HLM143, HLM144; host or cells: human liver microsomes
The series can be described thus: Inhibition of CYP2D6 (demethylation of dextromethorphan) in human liver microsomes. Conditions: probe dextromethorphan (O-demethylation), 5 μM, read-out: inhibitory activity toward CYP2D6. In kind it is in vitro ADME. On the procedure: (§1) Human livers, HLM141, HLM143, and HLM144 were selected from the University of Washington Human Liver Bank for this study. […] The seven isoforms and the metabolic pathway of each of the probes used to monitor specific isoform activity are listed below.
CYP2D6: The 0-demethylation of dextromethorphan (5 μM). The reaction is monitored by high performance liquid chromatography (HPLC) using florescence detection.
In general terms: Liver microsomes are vesicles of endoplasmic reticulum, rich in cytochrome P450 enzymes.

In another series the target is T2, CYP2E1 (Homo sapiens, UniProt P05181).
T2 construct: Human livers, HLM141, HLM143, and HLM144 were selected from the University of Washington Human Liver Bank for this study; Microsomes were prepared; tissue University of Washington Human Liver Bank HLM141, HLM143, HLM144; host or cells: human liver microsomes
T2 sequence (P05181 whole entry): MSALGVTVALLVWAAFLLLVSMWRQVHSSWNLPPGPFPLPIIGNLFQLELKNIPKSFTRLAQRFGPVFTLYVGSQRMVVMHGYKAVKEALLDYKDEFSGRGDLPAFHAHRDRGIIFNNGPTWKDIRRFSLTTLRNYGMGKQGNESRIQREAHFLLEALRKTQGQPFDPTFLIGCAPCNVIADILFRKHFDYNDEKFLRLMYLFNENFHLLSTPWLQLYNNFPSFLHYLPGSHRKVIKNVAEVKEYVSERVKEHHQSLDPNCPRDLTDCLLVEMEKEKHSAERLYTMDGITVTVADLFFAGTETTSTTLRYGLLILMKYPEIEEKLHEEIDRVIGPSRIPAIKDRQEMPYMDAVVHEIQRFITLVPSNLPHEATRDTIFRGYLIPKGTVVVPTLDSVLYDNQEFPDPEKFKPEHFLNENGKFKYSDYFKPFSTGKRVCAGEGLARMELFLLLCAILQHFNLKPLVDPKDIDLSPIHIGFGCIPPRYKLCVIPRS
The series can be described thus: Inhibition of CYP2E1 (p-nitrocatechol from p-nitrophenol) in human liver microsomes. In kind it is in vitro ADME. As to conditions: 1500 μM. As for the experimental part:
as §1
CYP2E1: The formation of p-nitrocatechol from p-nitrophenol (40 μM). Amounts of product formed are monitored by HPLC.

T1 sequence (P10635 whole entry): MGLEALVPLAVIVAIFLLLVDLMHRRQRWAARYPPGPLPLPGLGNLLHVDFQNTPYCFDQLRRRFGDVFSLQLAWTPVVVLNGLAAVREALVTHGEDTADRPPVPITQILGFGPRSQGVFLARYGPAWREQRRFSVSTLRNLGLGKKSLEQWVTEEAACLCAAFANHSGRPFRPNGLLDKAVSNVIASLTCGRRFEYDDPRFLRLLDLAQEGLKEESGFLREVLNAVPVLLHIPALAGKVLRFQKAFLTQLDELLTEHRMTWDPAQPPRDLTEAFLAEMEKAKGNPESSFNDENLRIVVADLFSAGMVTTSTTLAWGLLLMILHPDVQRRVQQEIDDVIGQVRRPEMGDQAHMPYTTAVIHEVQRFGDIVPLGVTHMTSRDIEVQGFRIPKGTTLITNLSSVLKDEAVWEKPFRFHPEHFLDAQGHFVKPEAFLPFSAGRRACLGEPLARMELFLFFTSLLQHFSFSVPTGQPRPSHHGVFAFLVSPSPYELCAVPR

In the case of `CC(C)(CCCCOCCCCC(C)(C)C(=O)O)C(=O)O` [Gemcabene, 6,6′-oxybis(2,2-dimethylhexanoic acid)], the inhibition at 1500 µM on CYP2D6 was 10 to 20%. The CYP2E1 activity enhanced result at CYP2E1 is listed as “about 20%”.
